Data published in US10039779B2, “Combination formulation of two antiviral compounds” (priority 2013, dated 2018).

Experiments:
[1] = pH-solubility profile and solubility in simulated intestinal media; type: physicochemical; conditions: aqueous, neutral form (pH>5), room temperature
Description: Excess solid ledipasvir was added to a range of pH-adjusted aqueous solutions (titrated with HCl or NaOH) and stirred for 48 hours at room temperature. The suspensions were then filtered through regenerated cellulose syringe filters. The pH value of the supernatant was measured, and the supernatant was diluted as appropriate with 50:50 H2O+0.1% TFA:ACN and assayed for ledipasvir content by the HPLC-UV method.
Solubility of ledipasvir amorphous free base was assessed in three types of simulated intestinal fluids at pH 6.5 or pH 5.0; and simulated intestinal bile salt and lecithin mixture (SIBLM), pH 6.4. Excess solid ledipasvir was added to the respective SIFs and stirred for 48 hours at room temperature. The resulting suspensions were then filtered through regenerated cellulose syringe filters. The supernatant was diluted as appropriate with 50:50 H2O+0.1% TFA:ACN and assayed for ledipasvir content by the HPLC-UV method.

[2] = Aqueous solubility with 0.1% w/w surfactants and polymers; dissolution behavior of forms; type: physicochemical; conditions: aqueous buffered solutions
Description: Excess solid was added to aqueous buffered solutions; samples were withdrawn at predetermined intervals (2, 5, 8, 10, 15, 20, 30, 45, 60 minutes, and 24 hours), filtered through regenerated cellulose filters, and diluted for concentration measurement by the HPLC-UV method.

[3] = Pharmacokinetics of sofosbuvir and ledipasvir alone or in combination; type: in vivo; conditions: for AUC(0-inf) / AUC(0-t) / Cmax: po, plasma analyte, n = 17, mean (% CV)
[4] = Compatibility/stability of sofosbuvir and ledipasvir:copovidone solid dispersion blend; type: physicochemical; conditions: for Strength / Total Impurity Content: blend pellets, open glass vials
Description: The compatibility of sofosbuvir anhydrous crystalline drug substance was evaluated with the ledipasvir:copovidone solid dispersion. A blend of the sofosbuvir and ledipasvir:copovidone (1:1) solid dispersion was prepared at a ratio representative of the final 400 mg sofosbuvir/90 mg ledipasvir tablets. […]

[5] = PK of sofosbuvir alone or with Compound E (and ledipasvir); type: in vivo; conditions: for AUC(0-inf) / AUC(0-t) / Cmax: human, in vivo, n = 18, mean (% CV)
Description: Subjects (n=18) received single doses of sofosbuvir (400 mg) alone or in combination with Compound E (500 mg QD) under fed conditions.

HCV = assay: Dose selection: antiviral response and Emax PK/PD modeling; type: in vivo, Hepatitis C virus
Description: The sofosbuvir dose selected for the tablet formulation is 400 mg once daily. Support for the 400 mg sofosbuvir dose can be derived from Emax PK/PD modeling with early virological and human exposure data which also supports the selection of a 400 mg sofosbuvir dose over others tested.
The mean sofosbuvir major metabolite AUCtau for the 400 mg sofosbuvir dose is associated with approximately 77% of the maximal HCV RNA change from baseline achievable as determined by this model, a value which is on the cusp of the plateau of the exposure-response sigmoidal curve. […] Therefore, given that sofosbuvir exposure with 200 mg tablets appears dose-proportional with single doses up to 1200 mg, doses below 400 mg are expected to yield considerable reductions in the magnitude of HCV RNA change from baseline.
The sofosbuvir dose of 400 mg once daily was associated with higher SVR rates in genotype 1 HCV infected patients as compared to the 200 mg once daily dose when given in conjunction with additional HCV therapeutics for 24 weeks. Safety and tolerability appeared similar across both dose levels. In addition, when sofosbuvir 400 mg once daily plus other HCV therapeutics were given to genotype 2 or 3 HCV infected patients, 100% SVR24 was observed.
The maximum median HCV RNA log 10 reduction was 3 or greater for all cohorts dosed with ≥3 mg of ledipasvir. […] Therefore, 30 mg and 90 mg of ledipasvir were selected as the dose for the formulations described herein.
Therefore, the 90 mg dose of ledipasvir may confer a greater antiviral coverage that prevents viral breakthrough.

clinical = conditions: in vivo; for AUC(0-inf) / AUC(0-t) / Cmax: po, plasma analyte, Sofosbuvir/Ledipasvir Tablet, n = 29, mean (% CV); for AUC(0-inf): AUCinf; for AUC(0-t): AUClast
[6] = PK of Sofosbuvir/Ledipasvir tablets fasted or with meals
[7] = listed as Ledipasvir crystalline free base Form III
[8] = Sofosbuvir + Ledipasvir vs single agent alone
[9] = in vivo, Sofosbuvir + Ledipasvir
[10] = SOF + Compound E + ledipasvir vs SOF alone
[11] = po, 400 mg, SOF + Compound E (500 mg QD), fed
[12] = po, 400 mg, SOF alone (400 mg single dose, fed)

COC(=O)N[C@H](C(=O)N1CC2(CC2)C[C@H]1c1ncc(-c2ccc3c(c2)C(F)(F)c2cc(-c4ccc5nc([C@@H]6[C@H]7CC[C@H](C7)N6C(=O)[C@@H](NC(=O)OC)C(C)C)[nH]c5c4)ccc2-3)[nH]1)C(C)C [Ledipasvir Form III]
intrinsic solubility (S0) [1, 7]: < 0.1 µg/mL
dissolution behavior relative to other ledipasvir forms [2, 7]: dissolves more slowly than the amorphous free base, but faster than ledipasvir-03

COC(=O)N[C@H](C(=O)N1CC2(CC2)C[C@H]1c1ncc(-c2ccc3c(c2)C(F)(F)c2cc(-c4ccc5nc([C@@H]6[C@H]7CC[C@H](C7)N6C(=O)[C@@H](NC(=O)OC)C(C)C)[nH]c5c4)ccc2-3)[nH]1)C(C)C [Ledipasvir-02]
dissolution behavior relative to other ledipasvir forms [2]: improved relative to all free base forms

COC(=O)N[C@H](C(=O)N1CC2(CC2)C[C@H]1c1ncc(-c2ccc3c(c2)C(F)(F)c2cc(-c4ccc5nc([C@@H]6[C@H]7CC[C@H](C7)N6C(=O)[C@@H](NC(=O)OC)C(C)C)[nH]c5c4)ccc2-3)[nH]1)C(C)C [Ledipasvir-03]
intrinsic solubility (S0) [1]: < 0.1 µg/mL
dissolution behavior relative to other ledipasvir forms [2]: slowest dissolution of all forms tested

CC(C)OC(=O)[C@H](C)N[P@](=O)(OC[C@H]1O[C@@H](n2ccc(=O)[nH]c2=O)[C@](C)(F)[C@@H]1O)Oc1ccccc1 [Sofosbuvir, (S)-isopropyl 2-(((S)-(((2R,3R,4R,5R)-5-(2,4-dioxo-3,4-dihydropyrimidin-1(2H)-yl)-4-fluoro-3-hydroxy-4-methyltetrahydrofuran-2-yl)methoxy)(phenoxy)phosphoryl)amino)propanoate]
AUC with ledipasvir as share of total drug related material (DRM) AUC ([3]; DRM = sum of AUCs of analytes corrected for molecular weight): ~5.7%
% GMR (90% CI) of AUCinf [3, 8]: 229 (191, 276) %
% GMR (90% CI) of AUClast [3, 8]: 230 (191, 277) %
% GMR (90% CI) of Cmax [3, 8]: 221 (176, 278) %
increase of plasma exposure by ledipasvir ([3]; in vivo): ~2.3 fold
AUC(0-inf) [3, 9]: 1750 ng·h/mL
AUC(0-t) [3, 9]: 1740 ng·h/mL
Cmax [3, 9]: 1870 ng/mL
AUC(0-inf) ([3]; in vivo, Sofosbuvir alone): 794 ng·h/mL
AUC(0-t) ([3]; in vivo, Sofosbuvir alone): 788 ng·h/mL
Cmax ([3]; in vivo, Sofosbuvir alone): 929 ng/mL
degradation in blend with the other active ([4]; 40° C./75% RH and 60° C./ambient humidity, two and four weeks): no degradation was observed
Strength ([4]; 45° C./75% RH, 0 weeks): 102.9%
Total Impurity Content ([4]; 45° C./75% RH, 0 weeks): 0.4%
Strength ([4]; 45° C./75% RH, 2 weeks): 101.6%
Total Impurity Content ([4]; 45° C./75% RH, 2 weeks): 0.3%
Strength ([4]; 45° C./75% RH, 4 weeks): 100.5%
Total Impurity Content ([4]; 45° C./75% RH, 4 weeks): 0.2%
Strength ([4]; 60° C., 0 weeks): 102.9%
Total Impurity Content ([4]; 60° C., 0 weeks): 0.4%
Strength ([4]; 60° C., 1 week): 102.4%
Total Impurity Content ([4]; 60° C., 1 week): 0.3%
Strength ([4]; 60° C., 2 weeks): 103.2%
Total Impurity Content ([4]; 60° C., 2 weeks): 0.3%
Strength ([4]; 60° C., 4 weeks): 102.8%
Total Impurity Content ([4]; 60° C., 4 weeks): 0.2%
% GMR of AUCinf [5, 10]: 297%
% GMR of AUClast [5, 10]: 301%
% GMR of Cmax [5, 10]: 283%
% GMR of AUCinf ([5]; SOF + Compound E vs SOF alone): 135%
% GMR of AUClast ([5]; SOF + Compound E vs SOF alone): 135%
% GMR of Cmax ([5]; SOF + Compound E vs SOF alone): 130%
AUC(0-inf) ([5]; SOF + Compound E + ledipasvir): 2560 ng·h/mL
AUC(0-t) ([5]; SOF + Compound E + ledipasvir): 2550 ng·h/mL
Cmax ([5]; SOF + Compound E + ledipasvir): 1260 ng/mL
AUC(0-inf) [5, 11]: 1150 ng·h/mL
AUC(0-t) [5, 11]: 1140 ng·h/mL
Cmax [5, 11]: 587 ng/mL
AUC(0-inf) [5, 12]: 921 ng·h/mL
AUC(0-t) [5, 12]: 908 ng·h/mL
Cmax [5, 12]: 515 ng/mL
share of the maximal HCV RNA change from baseline achievable (Emax PK/PD model) (HCV; 400 mg dose, mean major metabolite AUCtau): approximately 77%
SVR24 (HCV; 400 mg once daily plus other HCV therapeutics, genotype 2 or 3 HCV infected patients): 100%
Tmax (clinical): 1 h
AUC(0-inf) (clinical; Fasted): 1520 ng·h/mL
AUC(0-inf) (clinical; High-Calorie/High-Fat Meal): 2570 ng·h/mL
AUC(0-inf) (clinical; Moderate-Fat Meal): 2860 ng·h/mL
AUC(0-t) (clinical; Fasted): 1520 ng·h/mL
AUC(0-t) (clinical; High-Calorie/High-Fat Meal): 2550 ng·h/mL
AUC(0-t) (clinical; Moderate-Fat Meal): 2850 ng·h/mL
Cmax (clinical; Fasted): 1240 ng/mL
Cmax (clinical; High-Calorie/High-Fat Meal): 1350 ng/mL
Cmax (clinical; Moderate-Fat Meal): 1520 ng/mL
% GMR (90% CI) [Moderate-Fat/Fasted] of AUCinf ([6]; Sofosbuvir/Ledipasvir Tablet): 195 (176, 216) %
% GMR (90% CI) [Moderate-Fat/Fasted] of AUClast ([6]; Sofosbuvir/Ledipasvir Tablet): 195 (176, 216) %
% GMR (90% CI) [Moderate-Fat/Fasted] of Cmax ([6]; Sofosbuvir/Ledipasvir Tablet): 126 (109, 147) %
GMR (90% CI) [High-Fat/Fasted] of AUCinf ([6]; Sofosbuvir/Ledipasvir Tablet): 179 (162, 198) %
GMR (90% CI) [High-Fat/Fasted] of AUClast ([6]; Sofosbuvir/Ledipasvir Tablet): 178 (161, 198) %
GMR (90% CI) [High-Fat/Fasted] of Cmax ([6]; Sofosbuvir/Ledipasvir Tablet): 115 (99.0, 134) %
median Tmax ([6]; sofosbuvir/ledipasvir composition, with food): 2.00 h
